Experiments:
Assay in all cases: Histone peptide microarray
Assay type in all cases: binding, human
[1] = tested on: AIRE (PP); conditions: AIRE (PP)
How it was run: (§1)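 Mean ± SD of 4 replicate array intensities; GST-PHD finger at 0.5 μM against 293 PTM-bearing histone peptides.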

[2] = tested on: BAZ2B; conditions: BAZ2B
How it was run: as §1

[3] = tested on: BPTF (PB); conditions: BPTF (PB)
How it was run: as §1

[4] = tested on: CHD4 (PPCC); conditions: CHD4 (PPCC)
How it was run: as §1

[5] = tested on: CHD5 (PCC); conditions: CHD5 (PCC)
How it was run: as §1

[6] = tested on: CHD5 (PPCC); conditions: CHD5 (PPCC)
How it was run: as §1

[7] = tested on: DIDO1
How it was run: as §1

[8] = tested on: DPF2 (PPC2W2); conditions: DPF2 (PPC2W2)
How it was run: as §1

[9] = tested on: ING1
How it was run: as §1

[10] = tested on: ING2
How it was run: as §1

[11] = tested on: ING3
How it was run: as §1

[12] = tested on: ING4
How it was run: as §1

[13] = tested on: ING5
How it was run: as §1

[14] = tested on: KDM4C (TTP); conditions: KDM4C (TTP)
How it was run: as §1

[15] = tested on: KDM5A (1); conditions: KDM5A (1)
How it was run: as §1

[16] = tested on: KDM5A (3); conditions: KDM5A (3)
How it was run: as §1

[17] = tested on: KDM5B (1); conditions: KDM5B (1)
How it was run: as §1

[18] = tested on: KDM5B (3); conditions: KDM5B (3)
How it was run: as §1

[19] = tested on: KDM7A; conditions: KDM7A
How it was run: as §1

[20] = tested on: MLL5
How it was run: as §1

[21] = tested on: MORC3 (CW); conditions: MORC3 (CW)
How it was run: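 GST-tagged PHD readers, 0.5 μM, probed on a microarray of 293 synthetic histone peptides carrying single or combinatorial PTMs (optimized Petell protocol). Signals are averaged over 4 replicates and expressed as relative binding.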

[22] = tested on: PHF13
How it was run: as §1

[23] = tested on: PHF21A; conditions: PHF21A
How it was run: as §1

[24] = tested on: PHF23
How it was run: as §1

[25] = tested on: PHF2
How it was run: as §1

[26] = tested on: PHF8
How it was run: as §1

[27] = tested on: PHRF1 (RP); conditions: PHRF1 (RP)
How it was run: as §1

[28] = tested on: RAG2
How it was run: as §1

[29] = tested on: SP140L; conditions: SP140L
How it was run: as §1

[30] = tested on: TAF3
How it was run: as §1

[31] = tested on: TRIM66 (PB); conditions: TRIM66 (PB)
How it was run: as §1

[32] = GST-tagged, arrays performed twice, n of 4
[33] = sheet "Array Heatmap", each array performed twice, total n = 4

H4K5me1: H4 1-23 [Peptide H4K5me1]
Array Heatmap value (peptide array binding signal) [1, 32]: 0.4948
Array Heatmap value (peptide array binding signal) [2, 32]: 0.543
Array Heatmap value (peptide array binding signal) [3, 32]: 0.4183
Array Heatmap value (peptide array binding signal) [4, 32]: 0.6385
Array Heatmap value (peptide array binding signal) [5, 32]: 0.8576
Array Heatmap value (peptide array binding signal) [6, 32]: 0.6548
Array Heatmap value (peptide array binding signal) ([7]; DIDO1, GST-tagged, arrays performed twice, n of 4): 0.8543
Array Heatmap value (peptide array binding signal) [8, 32]: 0.7706
Array Heatmap value (peptide array binding signal) ([9]; ING1, GST-tagged, arrays performed twice, n of 4): 0.6473
Array Heatmap value (peptide array binding signal) ([10]; ING2, GST-tagged, arrays performed twice, n of 4): 0.6422
Array Heatmap value (peptide array binding signal) ([11]; ING3, GST-tagged, arrays performed twice, n of 4): 0.5888
Array Heatmap value (peptide array binding signal) ([12]; ING4, GST-tagged, arrays performed twice, n of 4): 0.5451
Array Heatmap value (peptide array binding signal) ([13]; ING5, GST-tagged, arrays performed twice, n of 4): 0.4376
Array Heatmap value (peptide array binding signal) [14, 32]: 0.5708
Array Heatmap value (peptide array binding signal) [15, 32]: 0.5517
Array Heatmap value (peptide array binding signal) [16, 32]: 0.517
Array Heatmap value (peptide array binding signal) [17, 32]: 0.6332
Array Heatmap value (peptide array binding signal) [18, 32]: 0.5457
Array Heatmap value (peptide array binding signal) [19, 32]: 0.4052
Array Heatmap value (peptide array binding signal) ([20]; MLL5, GST-tagged, arrays performed twice, n of 4): 0.6366
Array Heatmap value (peptide array binding signal) [21, 32]: 0.4265
Array Heatmap value (peptide array binding signal) ([22]; PHF13, GST-tagged, arrays performed twice, n of 4): 0.7061
Array Heatmap value (peptide array binding signal) [23, 32]: 0.5236
Array Heatmap value (peptide array binding signal) ([24]; PHF23, GST-tagged, arrays performed twice, n of 4): 0.6043
Array Heatmap value (peptide array binding signal) ([25]; PHF2, GST-tagged, arrays performed twice, n of 4): 0.6413
Array Heatmap value (peptide array binding signal) ([26]; PHF8, GST-tagged, arrays performed twice, n of 4): 0.4273
Array Heatmap value (peptide array binding signal) [27, 32]: 0.5306
Array Heatmap value (peptide array binding signal) ([28]; RAG2, GST-tagged, arrays performed twice, n of 4): 0.3031
Array Heatmap value (peptide array binding signal) [29, 32]: 0.3991
Array Heatmap value (peptide array binding signal) ([30]; TAF3, GST-tagged, arrays performed twice, n of 4): 0.3308
Array Heatmap value (peptide array binding signal) [31, 32]: 0.6456

H4K5proK8proK12pro: H4 1-23
Array Heatmap value (peptide array signal) [1, 33]: 0.5223
Array Heatmap value (peptide array signal) [2, 33]: 0.5476
Array Heatmap value (peptide array signal) [3, 33]: 0.4022
Array Heatmap value (peptide array signal) [4, 33]: 0.656
Array Heatmap value (peptide array signal) [5, 33]: 0.8593
Array Heatmap value (peptide array signal) [6, 33]: 0.65
Array Heatmap value (peptide array signal) ([7]; DIDO1, sheet "Array Heatmap", each array performed twice, total n = 4): 0.7693
Array Heatmap value (peptide array signal) [8, 33]: 0.725
Array Heatmap value (peptide array signal) ([9]; ING1, sheet "Array Heatmap", each array performed twice, total n = 4): 0.5929
Array Heatmap value (peptide array signal) ([10]; ING2, sheet "Array Heatmap", each array performed twice, total n = 4): 0.6246
Array Heatmap value (peptide array signal) ([11]; ING3, sheet "Array Heatmap", each array performed twice, total n = 4): 0.5538
Array Heatmap value (peptide array signal) ([12]; ING4, sheet "Array Heatmap", each array performed twice, total n = 4): 0.5361
Array Heatmap value (peptide array signal) ([13]; ING5, sheet "Array Heatmap", each array performed twice, total n = 4): 0.4117
Array Heatmap value (peptide array signal) [14, 33]: 0.5585
Array Heatmap value (peptide array signal) [15, 33]: 0.5265
Array Heatmap value (peptide array signal) [16, 33]: 0.4569
Array Heatmap value (peptide array signal) [17, 33]: 0.629
Array Heatmap value (peptide array signal) [18, 33]: 0.4906
Array Heatmap value (peptide array signal) [19, 33]: 0.3949
Array Heatmap value (peptide array signal) ([20]; MLL5, sheet "Array Heatmap", each array performed twice, total n = 4): 0.612
Array Heatmap value (peptide array signal) [21, 33]: 0.3861
Array Heatmap value (peptide array signal) ([22]; PHF13, sheet "Array Heatmap", each array performed twice, total n = 4): 0.7138
Array Heatmap value (peptide array signal) [23, 33]: 0.5432
Array Heatmap value (peptide array signal) ([24]; PHF23, sheet "Array Heatmap", each array performed twice, total n = 4): 0.5776
Array Heatmap value (peptide array signal) ([25]; PHF2, sheet "Array Heatmap", each array performed twice, total n = 4): 0.5444
Array Heatmap value (peptide array signal) ([26]; PHF8, sheet "Array Heatmap", each array performed twice, total n = 4): 0.41
Array Heatmap value (peptide array signal) [27, 33]: 0.4879
Array Heatmap value (peptide array signal) ([28]; RAG2, sheet "Array Heatmap", each array performed twice, total n = 4): 0.2779
Array Heatmap value (peptide array signal) [29, 33]: 0.3966
Array Heatmap value (peptide array signal) ([30]; TAF3, sheet "Array Heatmap", each array performed twice, total n = 4): 0.2924
Array Heatmap value (peptide array signal) [31, 33]: 0.6547

From article PMC6979384, “Characterization of the plant homeodomain (PHD) reader family for their histone tail interactions” (Epigenetics & Chromatin, 2020)
